Assay results published in PubChem BioAssay AID624254 (Broad Institute, 2012).
Activity calls are given as the source filed them. The rule behind the calls is not given here.

Test: Quorum luxo inducers, light production, v cholerae bh1651 luxod47e, confirmatory dose response (AID 624254)
Details: V. cholerae BH1651 luxOD47E, luciferase light induction, 6 h; at 50 µM (top of the series)

SMILES | activation (light increase)
CC(C)(C)c1nc(N2CCN(C(=O)c3ccco3)CC2)c2nnn(Cc3ccccc3)c2n1 | inactive
COC(=O)c1cnn(-c2nc(-c3ccccc3)cs2)c1N | inactive
Cn1cnc(S(=O)(=O)Nc2ccccc2)c1 | inactive
CCNC(=O)CCSc1nnc(-c2ccco2)o1 | inactive
Cc1cc(COc2ccccc2O)on1 | inactive
OCCn1c(SC2CCCCC2)nc2ccccc21 | inactive
CN(CC(=O)NCCN1CCOCC1)S(=O)(=O)c1ccc(Cl)cc1 | inactive
CCOc1ccc(CNC(=O)Cn2c(=O)c3cccn3c3ccccc32)cc1 | inactive
C[C@@H]1CN([C@@H](C)CO)C(=O)c2cccc(NC(=O)C3CC3)c2O[C@H]1CN(C)S(=O)(=O)c1cccs1 | inactive
CCc1sc(N(C(=O)Cc2ccccc2)c2cccc(F)c2)nc1-c1ccc(C)cc1 | inactive
Cc1ccc(C(=O)COc2cc(C)nc3nncn23)cc1 | inactive
COc1ccc(OCc2cn3c(C)cc(C)nc3n2)cc1 | inactive
Cc1ccc(OCCNC(=O)c2ccc(C)o2)cc1 | inactive
CCSc1nnc(NC(=O)c2ccc3ccccc3n2)s1 | inactive
Cc1nn2cnnc2c(C)c1Cc1c(F)cccc1Cl | inactive
Cc1cc(=O)oc2ccc(OCc3ccccc3)cc12 | inactive
C[C@H](CO)N1C[C@H](C)[C@@H](CN(C)S(=O)(=O)c2ccc(F)cc2)Oc2c(NC(=O)Nc3ccc4c(c3)OCO4)cccc2C1=O | inactive
CCS(=O)(=O)Nc1ccc(C(=O)OC)cc1 | inactive
CCN(CC1COc2ccccc2O1)C(=S)Nc1ccccc1 (configuration not stated) | inactive
COc1ccccc1NC(=O)COc1ccc2c(c1)OCO2 | inactive
CCn1nnnc1NCc1ccc(N2CCCC2)cc1 | inactive

SMILES | activation (light increase)
C=Cn1c(C(=O)O)ccc1-c1ccc(Cl)cc1 | inactive
CCCS(=O)(=O)N1CCCC(C(=O)NCCCN(C)c2ccccc2)C1 (configuration not stated) | inactive
CCc1ccc(S(=O)(=O)Nc2ccc(Br)cn2)cc1 | inactive
COCCNC(=S)N(CCCO)Cc1cc2cc3c(cc2[nH]c1=O)OCCO3 | inactive
COc1ccc(S(=O)(=O)N2CCCC(C(=O)NCc3ccncc3)C2)cc1 (configuration not stated) | inactive
COC(=O)Cn1nc(-c2ccccc2)c2ccccc21 | inactive
CCCc1ccc2oc(C(=O)N(Cc3ccncc3)CC3CCCO3)c(C)c2c1 (configuration not stated) | inactive
COc1ccc(C(=O)NC2CCSC2=O)cc1 (configuration not stated) | inactive
C[C@H](CO)N1C[C@H](C)[C@@H](CN(C)S(=O)(=O)c2ccc(Cl)cc2)Oc2c(NC(=O)Nc3ccc4c(c3)OCO4)cccc2C1=O | inactive
C[C@H](NC(=O)c1ccco1)C(=O)Nc1ccc(S(=O)(=O)N2CCCC2)cc1 | inactive
CCc1ccc(OCCNC(=O)c2ccco2)cc1 | inactive
CCOc1ccccc1N(CC(=O)Nc1ccc2c(c1)OCCO2)S(C)(=O)=O | inactive
Cc1ccc2occ(C(c3nnnn3Cc3ccccc3)N3CCOCC3)c(=O)c2c1 (configuration not stated) | inactive
COc1ccc(CNC(=O)c2ccc(Cl)c(S(=O)(=O)N3CCOCC3)c2)cc1OC | inactive
Cc1ccc(S(=O)(=O)N2CCN(C(=O)COC(=O)/C=C/c3ccc(F)cc3)CC2)c(C)c1 | inactive
CCOC(=O)CSc1nc(C)cc(C)c1C#N | inactive
COc1ccccc1NC(=O)Cc1csc(NC(=S)Nc2ccccc2)n1 | inactive
COc1ccc(CCNC(=O)c2ccc(Cl)cc2Cl)cc1 | inactive
COc1cc(C(C)=O)ccc1OCC(=O)Nc1cc(Cl)ccc1-n1cncn1 | inactive
O=C(/C=C/c1ccc(OCCCF)cc1)NCc1ccc(Cl)cc1 | inactive
COc1ccc(OCc2nnc3n2N=C(c2ccc(OC)cc2)CS3)cc1 | inactive

SMILES | activation (light increase)
C[C@@H]1CN([C@H](C)CO)C(=O)c2cccc(NC(=O)C3CC3)c2O[C@H]1CN(C)S(=O)(=O)c1cccs1 | inactive
O=C(Nc1c(F)c(F)c(F)c(F)c1F)C1CCCCC1 | inactive
O=C(COC(=O)CNC(=O)c1ccco1)NCCN1C(=O)CSC1=O | inactive
COc1ccc(NC(=O)CSc2ccc3c(c2)OCCO3)cc1OC | inactive
CCCS(=O)(=O)N1CCCC(C(=O)NCCCN(C)Cc2ccccc2)C1 (configuration not stated) | inactive
CCOc1ccc(S(=O)(=O)Nc2ccc(C(=O)NCC(c3ccco3)N3CCCCC3)cc2)cc1 (configuration not stated) | inactive
C[C@@H]1CN([C@H](C)CO)C(=O)c2cccc(NC(=O)C3CC3)c2O[C@@H]1CN(C)S(=O)(=O)c1cccs1 | inactive
Cc1ccc(C2(C)NC(=O)N(CC(=O)NCCC3=CCCCC3)C2=O)cc1 (configuration not stated) | inactive
O=C(c1cc2cc(Cl)ccc2oc1=O)N1CCCC1 | inactive
C=CCn1c(=O)c(C(=O)NC(C)c2ccccc2)c(O)c2ccccc21 (configuration not stated) | inactive
Cc1cc(Cl)ccc1OCC(=O)OCC(=O)NC1CCS(=O)(=O)C1 (configuration not stated) | inactive
Cc1ccc(S(=O)(=O)Nc2ccccc2F)cc1C(=O)NCCCN1CCCC1=O | inactive
CCOC(=O)c1c(-c2ccccc2)csc1NC(=O)c1nn(CC)cc1Br | inactive
COc1ccc(OCC(=O)Nc2ccccc2OC)cc1 | inactive
COc1cc(S(=O)(=O)N(Cc2cccs2)C2CC2)ccc1-n1cnnn1 | inactive
CC(C)Oc1ccc(OCCCN2CCCCCC2)cc1 | inactive
Cc1noc(C)c1NC(=O)Nc1cccc2c1O[C@H](CN(C)S(=O)(=O)c1cccs1)[C@H](C)CN([C@@H](C)CO)C2=O | inactive
COc1cccc(CNC(=O)COC(=O)CN(C)S(=O)(=O)c2ccc(NC(C)=O)cc2)c1 | inactive
O=C(COC(=O)c1cc(Cl)ccc1Cl)NC1CCCC1 | inactive
S=C(c1ccc(N2CCOCC2)cc1)N1CCCCC1 | inactive
